Values joined by “and” are separate entries in the source; they are usually repeats but may differ in a detail not shown here. Identical values can stand only once.
Tested on: tyrosinase (tyramine acid enzyme)
Test: Inhibition of tyrosinase (tyramine acid enzyme) activity, dopachrome growth
Type: biochemical
Conditions: 2 mg/mL or 1 mg/mL, 37° C., pH 6.8
Description: Pearl powder solution is subjected to filter by employing a device called Centriprep YM3. […] In this experiment, effects of tyrosinase activation (i.e., dopachrome growth) caused by each of soluble organic compound extract of nono pearl powder and soluble organic compound extract of micro pearl powder are evaluated. Also, for pearl powder of the same effects of tyrosinase activation caused by organic compounds having a molecular weight more than 5 kDa and by organic compounds having a molecular weight less than 5 kDa are evaluated.
Referring to FIG. 11 and Table 7 again, experiment conditions are concentration of 1 mg/mL, temperature of 37° C., and pH value of 6.8.

OC[C@H]1O[C@@H](Oc2ccc(O)cc2)[C@H](O)[C@@H](O)[C@@H]1O [arbutin]
Inhibition (%) of tyramine acid enzyme (dopachrome growth) (0 minute): 0 ± 0% | Inhibition (%) of tyramine acid enzyme (dopachrome growth) (5 minute): 36.5 ± 1.9% | Inhibition (%) of tyramine acid enzyme (dopachrome growth) (10 minute): 48.6 ± 0.7% | Inhibition (%) of tyramine acid enzyme (dopachrome growth) (15 minute): 54.3 ± 1.0% | Inhibition (%) of tyramine acid enzyme (dopachrome growth) (30 minute): 53% and 54.7 ± 0.9% | Inhibition (%) of tyramine acid enzyme (dopachrome growth) (45 minute): 37.1 ± 1.3% | Inhibition (%) of tyramine acid enzyme (dopachrome growth) (60 minute): 21% and 21.6 ± 1.9%

Source: US20100087623A1, “Method of extracting proteins and peptides from nano pearl powder” (priority 2008, published 2010)
